Assay results reported in patent US20180133221A1, “ADMINISTRATION OF UBIQUITIN-ACTIVATING ENZYME INHIBITOR AND CHEMOTHERAPEUTIC AGENTS” (Millennium Pharmaceuticals, Inc., priority 2014, published 2018).
Where two headings read alike, the source gives them in different places.

Assays:
[1] = test system: CTG-0486 human ovarian xenograft; assay type: in vivo
From the text: The CTG-0486 model of human ovarian xenograft model was established from a patient-derived tumor collected during surgery from a person with ovarian cancer (serous adenocarcinoma, metastases to the small bowel). CTG-0486 tumor fragments (approximately 2×2×3 mm^3) are implanted into the subcutaneous space in the right dorsal flank of female Mus musculus/nu/nu mice (age 6-9 weeks, Harlan Laboratories, Madison, Wis., USA) using a 13-gauge trocar needle. When the mean tumor volume reached approximately 260 mm3, the animals were randomized into 8 treatment groups (n=5/group).
[…] The once weekly schedule is also described as every 7 days (Q7D).
(§1) Compound 1 [((1R,2R,3S,4R)-2,3-dihydroxy-4-(2-(3-(trifluoromethylthio)-phenyl)pyrazolo[1,5-a]pyrimidin-7-ylamino)cyclopentyl)methyl sulfamate] is formulated in 10-20% HPbCD in sterile water and administered intravenously (IV) or subcutaneously (SC) on a BIW (twice/week schedule; Monday and Thursday or Tuesday and Friday) for either 2-4 weeks.
(§2) Tumors were measured twice weekly using vernier calipers. Tumor volumes were calculated using the standard formula V=W^2×L/2,). When mean tumor volumes reached approximately 200 mm^3 for PHTX-24C, 220 mm^3 for PHTX-Lu132, 150 mm^3 for CTG-0256, 260 mm^3 for CTG-0486, 185 mm^3 for PHTX-17C, 260 mm^3 for CTG-0165, 150 mm^3 for PHTX-14B in the study of Compound 1 and paclitaxel, 180 mm^3 for PHTX-14B in the study of Compound 1 and docetaxel, 200 mm^3 for SKOV-3, 220 mm^3 for PHTX-02B in the study of Compound 1 and docetaxel, 250 mm^3 for PHTX-02B in the study of Compound 1 and paclitaxel, 195 mm^3 for CTG-0159, 180 mm^3 for CTG-0012 or 150 mm^3 for Calu-6, mice were randomized into groups of n=5-7/arm as described in the tables below, and injected with vehicle, Compound 1 or agents (docetaxel, paclitaxel, oxaliplatin, cisplatin or carboplatin), or the combination of Compound 1 plus one of the agents, at various doses and schedules as described in tables below. Tumor size and body weight were measured approximately twice a week for the duration of the study. Mice are euthanized when their tumor volume reached 10% of their body weight, or when the average tumor volume of a treatment or control group reached approximately 2000 mm^3. Tumor growth continued to be monitored after the dosing period in some studies. Average tumor volume is reported as a function of time for selected arms of selected studies in the Figures.
(§3) Measurements from day 0 to day 14, day 19, day 21, or day 28 are analyzed as specified in Tables below. All tumor volumes have a value of 1 added to them before log10 transformation. For each animal, the log tumor volume at day 0 is subtracted from the log tumor volume on the subsequent days. This difference vs. time is used to calculate an area under the curve (AUC) for each animal using the trapezoid rule. […] The synergy score for the combination of agents A and B is defined as
(§4) 100*(mean(AUCAB)−mean(AUCA)−mean(AUCB)+mean(AUCctl))/mean(AUCctl):
(§5) where AUCAB, AUCA, AUCB, and AUCctl are the AUC values for animals in the combination group, the A group, the B group, and the control group, respectively. The standard error of the synergy score is computed based on the variation in the AUC values among the animals. […] If the P-value is above 0.05, then the combination is considered to be additive. If the P-value is below 0.05, and the synergy score is less than zero, then the combination is considered to be synergistic.

[2] = test system: SKOV-3 ovarian cell-line derived xenograft; assay: SKOV-3 xenograft model, Compound 1 and carboplatin; assay type: in vivo, nude mice; conditions: for Tumor Volume Day 14: in mm³ (unit assumed)
Description: SKOV-3 is an ovarian cell-line derived xenograft. Ten week old female nude mice (Taconic Farms, Inc) were inoculated subcutaneously in flank (cell suspension) with 4.0×10^6 SKOV-3 cells suspended in serum free DMEM+Matrigel. When the mean tumor volume reached approximately 200 mm^3, the animals were randomized into 12 treatment groups (n=5/group).
(§6) Carboplatin (Teva Pharmaceuticals) is formulated in 0.9% saline and administered by IP injection once weekly (QW) at 25, 50, 60, and 75 mg/kg. The once weekly schedule is also described as every 7 days (Q7D).
as §1, §2, §3, §4, §5

[3] = test system: CTG-0256 human ovarian xenograft; assay: CTG-0256 xenograft model, Compound 1 and carboplatin; assay type: in vivo, Mus musculus/nu/nu mice
From the text: The CTG-0256 model of human ovarian xenograft model was established from a patient-derived tumor collected during surgery at primary site from a person with ovarian cancer (serous adenocarcinoma with resistant response to carboplatin or paclitaxel). CTG-0256 tumor fragments (approximately 2×2×3 mm^3) were implanted into the subcutaneous space in the right dorsal flank of female Mus musculus/nu/nu mice (age 6-9 weeks, Harlan Laboratories, Madison, Wis.) using a 13-gauge trocar. When the mean tumor volume reached approximately 150 mm^3, the animals were randomized into 7 treatment groups (n=7/group).
as §6, §1, §2, §3, §4, §5

[4] = test system: PHTX-132Lu non-small cell lung xenograft
From the text: The PHTX-132Lu non-small cell lung xenograft model was established from a patient-derived tumor collected during surgery from a person with lung cancer (Poorly Differentiated Adenocarcinoma). PHTX-132Lu tumor fragments (approximately 2×2×3 mm^3) are implanted into the subcutaneous space in the right dorsal flank of female CB-17 SCID mice (age 10 weeks, Charles River Laboratory, Wilmington, Mass.) using a 13-gauge trocar. When the mean tumor volume reached approximately 220 mm^3, the animals were randomized into 12 treatment groups (n=5/group).
as §6, §1, §2, §3, §4, §5

[5] = test system: CTG-0165 human lung NSCLC xenograft; assay: CTG-0165 xenograft model, Compound 1 and cisplatin; assay type: in vivo, Mus musculus/nu/nu mice
Description: CTG-0165 tumor fragments (approximately 2×2×3 mm^3) were implanted into the subcutaneous space in the right dorsal flank of female Mus musculus/nu/nu mice (age 6-9 weeks, Harlan Laboratories, Madison, Wis., USA) using a 13-gauge trocar. When the mean tumor volume reached approximately 260 mm^3, the animals were randomized into 8 treatment groups (n=5/group).
Cisplatin (Teva Pharmaceuticals) is formulated in 0.9% saline and administered by IV injection once weekly (QW) at 7.5 mg/kg. The once weekly schedule is also described as every 7 days (Q7D).
as §1, §2, §3, §4, §5

[6] = test system: PHTX-14B breast xenograft; assay: PHTX-14B xenograft model, Compound 1 and docetaxel; assay type: in vivo, nude mice; conditions: for Tumor Volume Day 28: in mm³ (unit assumed)
Description: (§7) Docetaxel (Henry Schein, Inc., Pittsburgh Pa.) is formulated in 0.9% saline and administered by intravenous injection (IV) once weekly (QW) at 5 mg/kg or 10 mg/kg. […] Tumors were measured twice weekly using vernier calipers.

[7] = test system: PHTX-02B breast xenograft; assay: PHTX-02B xenograft model, Compound 1 and docetaxel; assay type: in vivo, SCID-NOD mice; conditions: for Tumor Volume Day 21: in mm³ (unit assumed)
Description: as §7

[8] = test system: Calu-6 non-small cell lung cancer xenograft; assay: Calu-6 xenograft model, Compound 1 and docetaxel; assay type: in vivo, nude mice; conditions: for Tumor Volume Day 21: in mm³ (unit assumed)
Description: Calu-6 is a non-small cell lung cancer cell-lined derived xenograft model. Nine week old female nude mice (Taconic Farms, Inc) were inoculated subcutaneously in the flank (cell suspension) with 4.0×10^6 Calu-6 cells suspended in serum free MEM. […] Docetaxel (Henry Schein, Inc., Pittsburgh Pa.) is formulated in 0.9% saline and administered by intravenous injection (IV) once weekly (QW) at 5 mg/kg or 10 mg/kg. […] Tumors were measured twice weekly using vernier calipers.

[9] = test system: CTG-0159 human lung NSCLC xenograft; assay: CTG-0159 xenograft model, Compound 1 and docetaxel; assay type: in vivo, Mus musculus/nu/nu mice; conditions: 10 mg/kg docetaxel QWx3 IV; in mm³ (unit assumed)
Description: as §7

PHTX-24C colon xenograft = assay: PHTX-24C xenograft model, Compound 1 and oxaliplatin; assay type: in vivo, CB-17 SCID mice
Description: (§8) Oxaliplatin (Jiang Su Geng Rui Pharmaceuticals, Inc.) is formulated in 0.9% saline and administered by IP injection once weekly (QW) at 7.5 or 12.5 mg/kg. The once weekly schedule is also described as every 7 days (Q7D).
as §1, §2, §3, §4
where AUCAB, AUCA, AUCB, and AUCctl are the AUC values for animals in the combination group, the A group, the B group, and the control group, respectively. […]

[10] = test system: PHTX-17C colorectal carcinoma xenograft; assay type: in vivo; conditions: for Tumor Volume Day 21: in mm³ (unit assumed)
From the text: The PHTX-17C colorectal carcinoma xenograft model was established from a patient-derived tumor collected during surgery from a person with moderately differentiated adenocarcinoma.PHTX-17C tumor fragments (approximately 2×2×3 mm^3) were implanted into the subcutaneous space in the right dorsal flank of female nude mice (age 5-7 weeks, Balb/c Nude Mice, Shanghai SINO-British SIPPR/BK Lab Animal Ltd, Shanghai, China) using a 13-gauge trocar. When the mean tumor volume reached approximately 185 mm^3, the animals were randomized into 12 treatment groups (n=5/group).
as §8, §1, §2, §3, §4, §5

[11] = test system: CTG-0012 human primary triple negative breast cancer model; assay: CTG-0012 xenograft model, Compound 1 and paclitaxel; assay type: in vivo, Mus musculus/nu/nu mice
Description: (§9) Paclitaxel (Bristol-Myers Squibb Company) is formulated in 0.9% saline and administered by intravenous injection (IV) on every 4 days (Q4D) or once weekly (QW) at 10 and 20 mg/kg. […] Tumors were measured twice weekly using vernier calipers.

[12] = test system: PHTX-14B breast xenograft; assay: PHTX-14B xenograft model, Compound 1 and paclitaxel; assay type: in vivo, Balb/c Nude Mice; conditions: for Tumor Volume Day 28: in mm³ (unit assumed)
Description: as §9

[13] = test system: PHTX-02B breast xenograft; assay: PHTX-02B xenograft model, Compound 1 and paclitaxel; assay type: in vivo, SCID-NOD mice; conditions: for Tumor Volume Day 19: in mm³ (unit assumed)
Description: as §9

[14] = single agent docetaxel 5 and 10 mg/kg IV QW
[15] = single agent paclitaxel IV at 10 mg/kg Q4D for 3 weeks

N.N.O=C([O-])C1(C(=O)[O-])CCC1.[Pt+2] [carboplatin, reference compound]
Tumor Volume Day 21 ([1]; 60 mg/kg carboplatin Q7Dx3 IV, in mm³ (unit assumed)): 400.6
anti-tumor activity compared to vehicle control ([1]; single agent carboplatin IP at 60 mg/kg Q7D for 3 weeks): modest to strong anti-tumor activity
Tumor Volume Day 14 ([2]; 25 mg/kg carboplatin Q7Dx2 IP): 932.8
Tumor Volume Day 14 ([2]; 75 mg/kg carboplatin Q7Dx2 IP): 798.5
anti-tumor activity compared to vehicle control ([2]; single agent carboplatin 25 and 75 mg/kg IP Q7D): modest anti-tumor activity
Volume Tumor Day 14 ([3]; 50 mg/kg carboplatin Q7Dx2 IP, in mm³ (unit assumed)): 1898.1
anti-tumor activity compared to vehicle control ([3]; single agent carboplatin IP at 50 mg/kg Q7D): modest to weak anti-tumor activity
Tumor Volume Day 21 ([4]; 25 mg/kg carboplatin Q7Dx3 IP, in mm³ (unit assumed)): 727
tolerability ([4]; 75 mg/kg carboplatin Q7D×3 as single agent (study group 2)): not tolerated
anti-tumor activity compared to vehicle control ([4]; single agent carboplatin 25 mg/kg IP Q7D): modest anti-tumor activity

N.N.[Cl][Pt][Cl] [cisplatin, reference compound]
Tumor Volume Day 21 ([5]; 7.5 mg/kg cisplatin QWx3 IV, in mm³ (unit assumed)): 489.3
anti-tumor activity compared to vehicle control ([5]; single agent cisplatin 7.5 mg/kg Q7D): modest to weak anti-tumor activity

CC(=O)O[C@@]12CO[C@@H]1C[C@H](O)[C@@]1(C)C(=O)[C@H](O)C3=C(C)[C@@H](OC(=O)[C@H](O)[C@@H](NC(=O)OC(C)(C)C)c4ccccc4)C[C@@](O)([C@@H](OC(=O)c4ccccc4)[C@H]21)C3(C)C [docetaxel, reference compound]
Tumor Volume Day 28 ([6]; 5 mg/kg docetaxel Q7Dx3 IV): 590.4
Tumor Volume Day 28 ([6]; 10 mg/kg docetaxel Q7Dx3 IV): 195.5
tumor growth compared to the vehicle control group [6, 14]: inhibited tumor growth
Tumor Volume Day 21 ([7]; 5 mg/kg docetaxel Q7Dx3 IV): 492.3
Tumor Volume Day 21 ([7]; 10 mg/kg docetaxel Q7Dx3 IV): 232.2
tumor growth compared to the vehicle control group [7, 14]: inhibited tumor growth
Tumor Volume Day 21 ([8]; 5 mg/kg docetaxel Q7Dx3 IV): 743.7
Tumor Volume Day 21 ([8]; 10 mg/kg docetaxel Q7Dx3 IV): 882.6
anti-tumor responses compared to the vehicle control [8, 14]: modest anti-tumor responses
Tumor Volume Day 21 [9]: 103.2

O=C1[O][Pt]2([NH][C@@H]3CCCC[C@H]3[NH]2)[O]C1=O [oxaliplatin, reference compound]
Tumor Volume Day 21 (PHTX-24C colon xenograft; 7.5 mg/kg oxaliplatin Q7Dx2 IP, in mm³ (unit assumed)): 720.6
anti-tumor activity compared to vehicle control (PHTX-24C colon xenograft; single agent oxaliplatin 7.5 mg/kg IP Q7D): modest anti-tumor activity
Tumor Volume Day 21 ([10]; 7.5 mg/kg oxaliplatin Q7Dx3 IP): 2017.5
Tumor Volume Day 21 ([10]; 12.5 mg/kg oxaliplatin Q7Dx3 IP): 1758.9
anti-tumor activity compared to vehicle control ([10]; single agent oxaliplatin IP at 7.5 or 12.5 mg/kg Q7D): modest anti-tumor activity

CC(=O)O[C@H]1C(=O)[C@@]2(C)[C@H]([C@H](OC(=O)c3ccccc3)[C@]3(O)C[C@H](OC(=O)[C@H](O)[C@@H](NC(=O)c4ccccc4)c4ccccc4)C(C)=C1C3(C)C)[C@]1(OC(C)=O)CO[C@@H]1C[C@@H]2O [paclitaxel, reference compound]
Tumor Volume Day 21 ([11]; 10 mg/kg paclitaxel Q4Dx3 IV, in mm³ (unit assumed)): 731.1
anti-tumor activity compared to vehicle control [11, 15]: modest to strong anti-tumor activity
Tumor Volume Day 28 ([12]; 10 mg/kg paclitaxel Q7Dx4 IV): 584.4
Tumor Volume Day 28 ([12]; 20 mg/kg paclitaxel Q7Dx4 IV): 283.6
anti-tumor activity ([12]; paclitaxel 20 mg/kg IV Q7D for 4 weeks): strong anti-tumor activity
anti-tumor activity compared to vehicle control ([12]; single agent paclitaxel 10 mg/kg IV Q7D for 4 weeks): modest anti-tumor activity
Tumor Volume Day 19 ([13]; 10 mg/kg paclitaxel Q4Dx3 IV): 1093.5
Tumor Volume Day 19 ([13]; 20 mg/kg paclitaxel Q4Dx3 IV): 245.2
anti-tumor activity ([13]; paclitaxel IV at 20 mg/kg Q4D for 3 weeks): strong anti-tumor activity
anti-tumor activity compared to vehicle control [13, 15]: minimal to modest anti-tumor activity
